Assays:
[1] = target: T1, Alpha-1B adrenergic receptor (Homo sapiens, UniProt P35368); experiment: Compound was evaluated for its binding affinity towards COS cell membrane expressing the human Alpha-1B adrenergic receptor; type: cell membranes
T1 sequence (P35368 whole entry): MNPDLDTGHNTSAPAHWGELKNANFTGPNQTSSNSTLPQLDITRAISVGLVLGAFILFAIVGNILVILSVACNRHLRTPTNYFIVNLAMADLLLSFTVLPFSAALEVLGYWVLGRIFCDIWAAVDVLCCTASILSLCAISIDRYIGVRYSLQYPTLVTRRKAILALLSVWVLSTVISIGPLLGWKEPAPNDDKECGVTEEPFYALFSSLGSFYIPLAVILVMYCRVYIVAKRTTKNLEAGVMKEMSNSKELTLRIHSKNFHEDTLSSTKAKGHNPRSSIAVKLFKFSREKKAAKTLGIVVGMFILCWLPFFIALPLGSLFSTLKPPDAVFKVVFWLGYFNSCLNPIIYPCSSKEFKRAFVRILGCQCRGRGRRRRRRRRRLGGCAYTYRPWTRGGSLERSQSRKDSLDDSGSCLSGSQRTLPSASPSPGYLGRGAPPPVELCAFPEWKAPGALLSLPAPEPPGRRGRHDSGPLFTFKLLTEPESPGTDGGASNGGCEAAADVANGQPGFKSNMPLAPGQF

[2] = target: T2, Alpha-1D adrenergic receptor (Homo sapiens, UniProt P25100); experiment: Compound was evaluated for its binding affinity to COS cell membrane expressing the human Alpha-1D adrenergic receptor; type: cell membranes
T2 sequence (P25100 whole entry): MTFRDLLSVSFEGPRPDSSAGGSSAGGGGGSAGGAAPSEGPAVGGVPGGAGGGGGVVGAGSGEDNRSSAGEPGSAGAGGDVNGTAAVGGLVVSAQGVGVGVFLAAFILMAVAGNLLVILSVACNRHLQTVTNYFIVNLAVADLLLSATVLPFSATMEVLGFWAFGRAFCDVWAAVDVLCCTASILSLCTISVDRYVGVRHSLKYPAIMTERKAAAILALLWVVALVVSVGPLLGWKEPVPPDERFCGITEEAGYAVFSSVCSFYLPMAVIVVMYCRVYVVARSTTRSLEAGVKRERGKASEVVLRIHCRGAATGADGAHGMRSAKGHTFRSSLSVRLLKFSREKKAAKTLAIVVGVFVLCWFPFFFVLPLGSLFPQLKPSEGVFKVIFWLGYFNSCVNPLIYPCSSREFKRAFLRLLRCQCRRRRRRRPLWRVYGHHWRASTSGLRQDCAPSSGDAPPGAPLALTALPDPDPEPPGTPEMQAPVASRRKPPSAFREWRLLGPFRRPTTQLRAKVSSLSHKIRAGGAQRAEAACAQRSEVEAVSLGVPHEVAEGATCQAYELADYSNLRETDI

[3] = target: Adrenergic receptors; alpha-1 A & B (Homo sapiens) (UniProt P35348+P35368); experiment: Ratio of binding affinity of compound to human adrenergic receptor alpha-1b to that of human adrenergic receptor alpha-1a; type: protein assay
[4] = target: Alpha adrenergic receptor (1a and 1d) (Homo sapiens) (UniProt P35348+P25100); experiment: Ratio of binding affinity of compound to human adrenergic receptor alpha-1d to that of human adrenergic receptor alpha-1a; type: protein assay
[5] = target: T3, Alpha-1A adrenergic receptor (Homo sapiens, UniProt P35348); experiment: Compound was evaluated for its binding affinity to COS cell membrane expressing the human Alpha-1A adrenergic receptor; type: cell membranes
T3 sequence (P35348 whole entry): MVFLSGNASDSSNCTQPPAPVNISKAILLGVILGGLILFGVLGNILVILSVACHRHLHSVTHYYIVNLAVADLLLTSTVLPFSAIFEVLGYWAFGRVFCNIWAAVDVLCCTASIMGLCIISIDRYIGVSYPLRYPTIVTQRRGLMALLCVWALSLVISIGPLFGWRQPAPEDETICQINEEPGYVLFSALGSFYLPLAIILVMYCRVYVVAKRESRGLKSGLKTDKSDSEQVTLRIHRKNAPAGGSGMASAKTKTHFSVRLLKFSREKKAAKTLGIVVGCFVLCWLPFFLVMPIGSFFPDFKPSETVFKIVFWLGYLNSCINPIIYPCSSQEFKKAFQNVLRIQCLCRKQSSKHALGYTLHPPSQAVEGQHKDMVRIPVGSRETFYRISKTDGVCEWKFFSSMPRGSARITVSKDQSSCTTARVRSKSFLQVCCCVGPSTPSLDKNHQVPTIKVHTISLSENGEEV

SMILES | Ki [1] | Ki [2] | Ratio [3] | Ratio [4] | Ki [5]
CC(C)Oc1ccccc1N1CCN(Cc2cc(CN3CCCCC3=O)nn2C)CC1 | 2.77 µM | 0.044 µM | 308 | 5 | 0.009 µM
CC(C)Oc1ccccc1N1CCN(Cc2cc(CN3CCCCC3=O)n(C)n2)CC1 | 3.08 µM | 0.052 µM | 832 | 14 | 0.0037 µM
CC(C)Oc1ccccc1N1CCN(Cc2cc(CN3CCCCC3=O)n[nH]2)CC1 | 3.92 µM | 0.177 µM | 1860 | 84 | 0.0021 µM
CC(C)Oc1ccccc1N1CCN(Cc2cc(CN3CCCCC3=O)on2)CC1 | 4.46 µM | 0.272 µM | 1170 | 72 | 0.0038 µM
CC(C)Oc1ccccc1N1CCN(Cc2cc(CN3CCCCC3=O)nc(N)n2)CC1 | > 10 µM | > 10 µM | > 127 | > 127 | 0.079 µM
CC(C)Oc1ccccc1N1CCN(CC2=NOC(CN3CCCCC3=O)C2)CC1 (stereo not given) | > 10 µM | 1.52 µM | > 112 | 17 | 0.089 µM

Source: ChEMBL document CHEMBL1132787, “Novel heterocycles as selective alpha1-adrenergic receptor antagonists” (Bioorg Med Chem Lett, 2000)
